# In article PMC7170299, “Design, synthesis, molecular modelling and biological evaluation of novel 3-(2-naphthyl)-1-phenyl-1H-pyrazole derivatives as potent antioxidants and 15-Lipoxygenase inhibitors” (Journal of Enzyme Inhibition and Medicinal Chemistry, 2020):
# How the values were obtained:
# [1] = tested on: glutathione (GSH) in liver; assay: In vivo reduced glutathione (GSH) level in liver homogenate; parameters: species or system male Wistar albino rats; conditions: rat liver, 100 mg/kg orally for 3 days; for GSH: mean ± SEM, n = 6
# Description: (§1) The complete progress of the experiment was conducted using male Wistar albino rats (200–250 g), delivered by the Institutional Breeding House, Egypt, reared and maintained in the animal house of the institution. The animals had free access to food and water ad libitum and maintained in a controlled environment under standard conditions of temperature and humidity with an alternating 12 h light and dark cycle for about a week for acclimatization. The protocol of the study was approved by the Animal Ethics Committee of the Faculty of Pharmacy, Helwan University (ethical code number: 05A2019; date: October 2019). The study was conducted in accordance with the EC, directive 86/609/EEC for animal experiments.
# (§2) Rats are weighed at the beginning and at the end of experiment. Fifty-four male albino rats (n=6) were divided into nine different groups. Group I served as a control group and treated with the same volume vehicle only. Group II treated with 100 mg/kg of Ascorbic acid as standard antioxidant drug. Groups (III–IX) orally administered 100 mg/kg of compounds 3a, 4e, 5b, 5c, 6a, 6c, 6e, respectively, for 3 days. The animals were sacrificed by cervical dislocation 24 h after the last dose. Sacrificing is carried out at the same time of the day, to avoid the circadian variation in the level of tissue GSH[53]. Each liver was excised, weighed, rinsed in ice-cold normal saline and frozen for not more than 72 h await analysis of endogenous antioxidant status (GSH levels and CAT activity) and lipid peroxide concentrations. For performing biochemical assays, a 10% liver homogenate in 10 mM phosphate buffer was prepared using tissue homogeniser (Glas-Col®, Cat no.099C K6424, TERRE HAUTE, USA).
# Levels of glutathione (GSH) in liver homogenates were assayed by the deproteinization of tissue homogenate. Then […] supernatant was mixed with di-potassium hydrogen phosphate buffer (pH 8) and 0.4% 5,5′-dithiobis-2-nitrobenzoic acid (Ellman’s reagent). The yellow-coloured substance formed was measured at 412 nm. The results were expressed as GSH mg/g tissue.
# [2] = DPPH radical scavenging assay; conditions: mean ± SEM of three experiments; 30 min, 517 nm
# Description: The DPPH scavenging activity of all synthesized compounds was measured as previously described by Nahar et al.[48] with some modifications. Briefly, 100 µL of different concentrations of the tested compounds (12.5, 25, 50, 100, and 200 µg/mL) were pipetted into a 96-well plate. Then, 100 µL of 100-µM DPPH methanolic solution were added to each well and the plate was incubated protected from light at room temperature for 30 min. The absorbance of the solution was measured at λ517 nm.[49] Ascorbic acid was used as the positive control while DMSO was the negative control. The percentage of DPPH scavenging activity was calculated according to the following equation: % of DPPH scavenging=[(Acontrol–Asample)/Acontrol] ×100, where Acontrol is the absorbance of the control reaction (with all reagents except the test compound), and Asample is the absorbance of the test sample. […] All tests were performed in triplicates.
# [3] = Superoxide scavenging assay (pyrogallol autoxidation); conditions: for Superoxide scavenging potency relative to ascorbic acid: folds of ascorbic acid; for Superoxide IC50: mean ± SEM of three experiments, pyrogallol autoxidation, 325 nm
# Description: The improved pyrogallol autoxidation method was used to determine O2^−. RSA of all synthesized compounds as previously described. Briefly, 50 µL of test compounds (12.5, 25, 50,100, and 200 µg/mL) was added to 2900 µl of […] Tris HCl buffer (0.05 M, pH 7.4) containing 1-mM Na2EDTA. Next, 50 µL of 60-mM pyrogallol in1mM HCl had been thoroughly mixed with the mixture. The absorbance of the reaction mixture was measured at A325 nm every 30 s for 5 min. O2^− RSA was expressed by the oxidation degree of a test group in comparison to that of the control. The absorbance at 325 nm was measured against the Tris-HCl buffer every 30 s for 5 min. The percentage of scavenging effect was calculated using the following equation: O2^− radical scavenging %=[(ΔA325, control/T)−(ΔA325nm, sample/T)/ΔA325nm, control/T]×100 where ΔA325 nm, control is the increase in A325 nm of the reaction mixture without the sample and ΔA325 nm, sample is that for the mixture with the sample; T=5 min. The experiments were performed in triplicate.
# [4] = tested on: Catalase (CAT) activity in liver; assay: In vivo catalase (CAT) activity in liver homogenate; parameters: species or system male Wistar albino rats; conditions: rat liver, 100 mg/kg orally for 3 days; for CAT: mean ± SEM, n = 6
# Description: as §1, §2
# Catalase activity in 10% liver homogenates was determined spectrophotometrically according to Sinha AK[54]. The decrease in absorbance at 240 nm due to H2O2 decomposition was measured and the results were expressed in U/mg tissue.
# [5] = tested on: lipid peroxidation (MDA) in liver; assay: In vivo lipid peroxide level (TBARS/MDA) in liver homogenate; parameters: species or system male Wistar albino rats; conditions: rat liver; 100 mg/kg orally for 3 days; mean ± SEM, n = 6
# Description: as §1, §2
# Lipid peroxidation level in the liver homogenates was determined as thiobarbituric acid reactive substances (TBARS) by measuring malondialdehyde ‘MDA’ level according to Mihara and Uchiyama[56]. Briefly, 0.5 mL supernatant of tissue homogenate was mixed with 0.6% thiobarbituric acid (TBA) and 1% orthophosphoric acid solution, and heated in a boiling water bath for 45 min. The pink-coloured chromogen formed by the reaction of TBA with MDA was extracted by n-butanol and measured at 535 nm. The results were expressed as nmol/g tissue.
# [6] = NO scavenging assay (sodium nitroprusside / Griess reagent); conditions: mean ± SEM of three experiments; 90 min, 546 nm
# Description: The NO scavenging activity of all synthesized compounds was measured as previously described by Ho et al.[50] Briefly, 50 µL of different concentrations of the tested compounds (12.5, 25, 50,100, and 200 µg/mL) were pipetted into a 96-well plate. Then, 50 µL of 10-mM sodium nitroprussides dissolved in phosphate-buffered saline PBS (pH 7.4) were added to each well and the plate was incubated for 90 min at room temperature. Next, an equal volume of Griess reagent (1% of sulphanilamide and 0.1% of naphthyl ethylene diamine in 2.5% […]) was added to each well to measure the nitrite content. The absorbance of the formed pink-coloured chromophore was measured at λ 546 nm. DMSO and ascorbic acid were used as the negative and positive control, respectively. All tests were performed in triplicate. The percentage of NO scavenging activity was calculated according to the following equation: % of NO scavenging=[(Acontrol−Asample)/Acontrol]×100 where Acontrol is the absorbance of the control reaction (with all reagents except the test compound), and Asample is the absorbance of the test sample.
SMILES,GSH [1],DPPH IC50 [2],Superoxide scavenging potency relative to ascorbic acid [3],Superoxide IC50 [3],CAT [4],TBARS [5],NO IC50 [6],Increase in GSH compared to control group [1],Increase of CAT enzyme level compared to control group [4]
"c1ccc(C2=NNC(c3cn(-c4ccccc4)nc3-c3ccc4ccccc4c3)C2)cc1 (centres unmarked) [Compound 3a, 3′-Naphthalen-2-yl-5,1′-diphenyl-3,4-dihydro-2H,1’H-[3,4′]bipyrazole]",7.00 ± 0.27 mg/g tissue,13.99 ± 0.78 µg/mL,2.5 folds,50.42 ± 1.45 µg/mL,36.21 ± 3.49 U/mg tissue,0.350 ± 0.05 nmol/g tissue,27.65 ± 1.53 µg/mL,–,–
"Clc1ccc(C2=NN(c3ccccc3)C(c3cn(-c4ccccc4)nc3-c3ccc4ccccc4c3)C2)cc1Cl (centres unmarked) [Compound 4e, 5-(3,4-Dichlorophenyl)-3′-naphthalen-2-yl-2,1′-diphenyl-3,4-dihydro-2H,1’H-[3,4′]-bipyrazole]",7.05 ± 0.56 mg/g tissue,19.56 ± 1.06 µg/mL,–,130.19 ± 1.1 µg/mL,43.48 ± 4.51 U/mg tissue,0.402 ± 0.04 nmol/g tissue,57.01 ± 1.29 µg/mL,–,–
"COc1ccc(C2=NOC(c3cn(-c4ccccc4)nc3-c3ccc4ccccc4c3)C2)cc1 (centres unmarked) [Compound 5b, 3-(4-Methoxyphenyl)-5-(3-naphthalen-2-yl-1-phenyl-1H-pyrazol-4-yl)-4,5-dihydro isoxazole]",10.71 ± 0.86 mg/g tissue,46.62 ± 1.63 µg/mL,–,101.8 ± 1.39 µg/mL,48.19 ± 1.24 U/mg tissue,0.330 ± 0.02 nmol/g tissue,75.53 ± 1.43 µg/mL,about 52%,about 101%
"Cc1ccc(C2=NOC(c3cn(-c4ccccc4)nc3-c3ccc4ccccc4c3)C2)cc1 (centres unmarked) [Compound 5c, 5-(3-Naphthalen-2-yl-1-phenyl-1H-pyrazol-4-yl)-3-p-tolyl-4,5-dihydroisoxazole]",10.92 ± 0.96 mg/g tissue,47.27 ± 1.13 µg/mL,2.8 folds,44.54 ± 1.44 µg/mL,45.42 ± 4.30 U/mg tissue,0.346 ± 0.01 nmol/g tissue,38.99 ± 1.31 µg/mL,~55%,~89%
"NC(=S)N1N=C(c2ccccc2)CC1c1cn(-c2ccccc2)nc1-c1ccc2ccccc2c1 (centres unmarked) [Compound 6a, 3′-Naphthalen-2-yl-5,1′-diphenyl-3,4-dihydro-1’H-[3,4′]bipyrazolyl-2-carbothioic acid amide]",7.07 ± 0.35 mg/g tissue,20.47 ± 1.43 µg/mL,–,127.25 ± 1.47 µg/mL,27.97 ± 3.46 U/mg tissue,0.348 ± 0.03 nmol/g tissue,36.37 ± 0.75 µg/mL,–,–
"Cc1ccc(C2=NN(C(N)=S)C(c3cn(-c4ccccc4)nc3-c3ccc4ccccc4c3)C2)cc1 (centres unmarked) [Compound 6c, 3′-Naphthalen-2-yl-1′-phenyl-5-p-tolyl-3,4-dihydro-1’H-[3,4′]bipyrazolyl-2-carbo thioic acid amide]",9.01 ± 0.72 mg/g tissue,18.98 ± 1.73 µg/mL,–,140.17 ± 1.52 µg/mL,44.38 ± 2.81 U/mg tissue,0.428 ± 0.02 nmol/g tissue,23.79 ± 0.83 µg/mL,–,–
NC(=S)N1N=C(c2ccc(Cl)c(Cl)c2)CC1c1cn(-c2ccccc2)nc1-c1ccc2ccccc2c1 (centres unmarked) [Compound 6e],10.65 ± 0.97 mg/g tissue,9.66 ± 0.34 µg/mL,–,87.31 ± 1.58 µg/mL,57.84 ± 3.50 U/mg tissue,0.344 ± 0.05 nmol/g tissue,71.39 ± 1.25 µg/mL,~51%,~141%
